Test results from ChEMBL document CHEMBL4725405, “Synthesis and evaluation of 17α-triazolyl and 9α-cyano derivatives of estradiol” (Bioorg Med Chem, 2020).

Key:
Estrogen receptor beta [1] = biological target: T1, Estrogen receptor beta (Homo sapiens, UniProt Q92731)
Estrogen receptor [2] = biological target: T2, Estrogen receptor (Homo sapiens, UniProt P03372)
T2 sequence (P03372 whole entry): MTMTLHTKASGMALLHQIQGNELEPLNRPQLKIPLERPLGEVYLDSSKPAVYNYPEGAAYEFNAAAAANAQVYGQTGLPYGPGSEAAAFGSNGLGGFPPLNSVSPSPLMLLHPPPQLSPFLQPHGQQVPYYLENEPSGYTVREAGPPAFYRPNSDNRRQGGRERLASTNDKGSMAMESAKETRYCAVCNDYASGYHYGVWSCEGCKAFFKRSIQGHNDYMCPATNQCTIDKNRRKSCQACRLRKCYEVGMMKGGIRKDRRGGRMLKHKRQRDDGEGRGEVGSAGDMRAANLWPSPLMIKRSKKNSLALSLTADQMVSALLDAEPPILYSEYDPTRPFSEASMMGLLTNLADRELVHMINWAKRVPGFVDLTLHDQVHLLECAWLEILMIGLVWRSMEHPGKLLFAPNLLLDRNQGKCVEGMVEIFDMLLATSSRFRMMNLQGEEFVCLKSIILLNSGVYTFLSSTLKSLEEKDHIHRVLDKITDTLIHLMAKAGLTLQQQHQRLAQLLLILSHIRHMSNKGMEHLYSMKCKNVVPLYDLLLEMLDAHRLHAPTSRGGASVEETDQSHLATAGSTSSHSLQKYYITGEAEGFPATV

Estrogen receptor [3] = biological target: T2, Estrogen receptor; remark: listed apart in the source
Description: Antagonist activity at full length human ERalpha receptor assessed as inhibition of estradiol-induced activation incubated for 22 to 24 hrs by cell based luciferase reporter gene assay

Estrogen receptor beta [4] = biological target: T1, Estrogen receptor beta; remark: listed apart in the source
Description: Antagonist activity at full length human ERbeta receptor assessed as inhibition of estradiol-induced activation incubated for 22 to 24 hrs by cell based luciferase reporter gene assay

Estrogen receptor beta [5] = biological target: T1, Estrogen receptor beta; remark: listed apart in the source
Description: Agonist activity at full length human ERbeta receptor assessed as transcriptional activity incubated for 22 to 24 hrs by cell based luciferase reporter gene assay

Estrogen receptor beta [6] = biological target: T1, Estrogen receptor beta; assay: Displacement of fluormone from GST-tagged ERbeta receptor LBD (unknown origin) measured after 60 mins by TR-FRET competitive binding assay relative to control; details: filed as agonist
[7] = biological target: T3, Estrogen receptor (Homo sapiens) (UniProt P03372); assay: Agonist activity at full length human ERalpha receptor assessed as transcriptional activity incubated for 22 to 24 hrs by cell based luciferase reporter gene assay relative to control; details: filed as agonist
T3 sequence (whole entry): T2 sequence (P03372 whole entry)

T1 sequence (Q92731 whole entry): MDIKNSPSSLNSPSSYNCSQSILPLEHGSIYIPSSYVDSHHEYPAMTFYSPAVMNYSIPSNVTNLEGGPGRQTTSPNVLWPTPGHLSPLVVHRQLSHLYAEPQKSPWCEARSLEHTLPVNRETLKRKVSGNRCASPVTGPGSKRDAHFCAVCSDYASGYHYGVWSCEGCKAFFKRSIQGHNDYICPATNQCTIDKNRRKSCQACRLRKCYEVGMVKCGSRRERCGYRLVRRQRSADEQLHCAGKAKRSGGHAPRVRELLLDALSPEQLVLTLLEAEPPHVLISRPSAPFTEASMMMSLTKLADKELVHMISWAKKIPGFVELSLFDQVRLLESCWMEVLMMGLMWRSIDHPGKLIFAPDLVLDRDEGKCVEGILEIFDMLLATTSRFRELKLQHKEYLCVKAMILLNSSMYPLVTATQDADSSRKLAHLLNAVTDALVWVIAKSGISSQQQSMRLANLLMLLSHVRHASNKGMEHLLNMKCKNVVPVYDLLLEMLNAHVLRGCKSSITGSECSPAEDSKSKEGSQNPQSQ

Question: For `C[C@]12CC[C@]3(C#N)c4ccc(O)cc4CC[C@H]3[C@@H]1CC[C@@]2(O)c1cn(CCO)nn1`, which EC50 (Estrogen receptor beta [1]) is on record?
Answer: 4400 nM

Question: What does the source list for `C[C@]12CC[C@@H]3c4ccc(O)cc4CC[C@H]3[C@@H]1CC[C@@]2(O)c1cn(CCO)nn1`?
Answer: EC50 (Estrogen receptor beta [1]): 50 nM; EC50 (Estrogen receptor [2]): 149 nM; EC50 (Estrogen receptor [3]): > 10000 nM; EC50 (Estrogen receptor beta [4]): > 10000 nM; EC50 (Estrogen receptor beta [5]): 16 nM

Question: `C[C@]12CC[C@@H]3c4ccc(O)cc4CC[C@H]3[C@@H]1CC[C@@]2(O)c1cn(-c2ccc(O)cc2)nn1` was tested. Which EC50 (Estrogen receptor beta [1]) did it give?
Answer: 0.65 nM

Question: What about the EC50 (Estrogen receptor [2]) of the same molecule?
Answer: 0.87 nM

Question: What about the EC50 (Estrogen receptor [3]) of the same molecule?
Answer: > 10000 nM

Question: And the EC50 (Estrogen receptor beta [4])?
Answer: > 10000 nM

Question: What about the EC50 (Estrogen receptor beta [5]) of the same molecule?
Answer: 0.81 nM

Question: `C[C@]12CC[C@]3(C#N)c4ccc(O)cc4CC[C@H]3[C@@H]1CCC2=O` was tested. Which EC50 (Estrogen receptor beta [1]) did it give?
Answer: 78 nM

Question: What about the EC50 (Estrogen receptor [2]) of the same molecule?
Answer: 88 nM

Question: What about the EC50 (Estrogen receptor [3]) of the same molecule?
Answer: > 10000 nM

Question: And the EC50 (Estrogen receptor beta [4])?
Answer: > 5000 nM

Question: What about the EC50 (Estrogen receptor beta [5]) of the same molecule?
Answer: 9 nM

Question: `C[C@]12CC[C@@H]3c4ccc(O)cc4CC[C@H]3[C@@H]1CC[C@@]2(O)c1cn(-c2cccc(O)c2)nn1` was tested. Which Activity (Estrogen receptor beta [6]) did it give?
Answer: 60%

Question: What about the Activity [7] of the same molecule?
Answer: 46%

Question: And the EC50 (Estrogen receptor beta [1])?
Answer: 12 nM

Question: And the EC50 (Estrogen receptor [2])?
Answer: 68 nM

Question: And the EC50 (Estrogen receptor [3])?
Answer: > 1000 nM

Question: And the EC50 (Estrogen receptor beta [4])?
Answer: > 10000 nM

Question: What about the EC50 (Estrogen receptor beta [5]) of the same molecule?
Answer: 21 nM

Question: Which results are given for `C#C[C@]1(O)CC[C@H]2[C@@H]3CCc4cc(O)ccc4[C@@]3(C#N)CC[C@@]21C`?
Answer: EC50 (Estrogen receptor beta [1]): 51 nM; EC50 (Estrogen receptor [2]): 22 nM; EC50 (Estrogen receptor [3]): > 10000 nM; EC50 (Estrogen receptor beta [4]): > 10000 nM; EC50 (Estrogen receptor beta [5]): 14 nM

Question: Which results are given for `C[C@]12CC[C@@H]3c4ccc(O)cc4CC[C@H]3[C@@H]1CC[C@@]2(O)c1cn(-c2ccccc2)nn1`?
Answer: EC50 (Estrogen receptor [2]): 5 nM; EC50 (Estrogen receptor [3]): > 1000 nM

Question: How did the EC50 (Estrogen receptor beta [1]) turn out when `C[C@]12CC[C@]3(C#N)c4ccc(O)cc4CC[C@H]3[C@@H]1CC[C@@H]2O` was run?
Answer: 0.27 nM

Question: And the EC50 (Estrogen receptor [2])?
Answer: 0.38 nM

Question: What about the EC50 (Estrogen receptor [3]) of the same molecule?
Answer: > 5000 nM

Question: What about the EC50 (Estrogen receptor beta [4]) of the same molecule?
Answer: > 25 nM

Question: What about the EC50 (Estrogen receptor beta [5]) of the same molecule?
Answer: 0.029 nM
